In patent US20070237818A1, “Controlled-release formulation of HCV protease inhibitor and methods using the same” (priority 2005, published 2007):

Key:
melanoma A375 tumors = melanoma A375 tumors implanted into the left ventricle of the heart; cited from earlier work
[1] = solubility in water / aqueous systems; format: physicochemical
hepatitis-C virus = test: mean viral load over time in HCV infected patients (FIG. 1); format: in vivo; conditions: various doses and regimens
Text: Thus, in one aspect of the invention, the one or more discrete dosages are adjusted in amount to provide a highest dose or doses at a time or times corresponding to the time interval when replication of the hepatitis-C virus is highest.

| SMILES | distant bone metastasis to the femur and tibia (melanoma A375 tumors) | solubility [1] [µg/mL] | viral load over time (hepatitis-C virus) |
| --- | --- | --- | --- |
| CN(C)C(=O)[C@H](Cc1ccccc1)NC(=O)[C@H]1O[C@@H]1C(=O)NCCc1ccccn1 [CLIK-148] | reduced | – | – |
| CC(C)(C)NC(=O)N[C@H](C(=O)N1C[C@H]2[C@@H]([C@H]1C(=O)NC(CC1CCC1)C(=O)C(N)=O)C2(C)C)C(C)(C)C (stereo partly drawn) [Formula Ia, (1R,5S)—N-[3-Amino-1-(Cyclobutylmethyl)-2,3-Dioxopropyl]-3-[2(S)-[[[(1,1-Dimethylethyl)Amino]Carbonyl]Amino]-3,3-Dimethyl-1-Oxobutyl]-6,6-Dimethyl-3-Azabicyclo[3.1.0]Hexan-2(S)-Carboxamide] | – | ~600 | decline in viral load is cyclical |
